Measurements reported in patent publication US20200206172A1, “COMPOSITIONS AND METHODS FOR TREATING NEURODEGENERATIVE DISORDERS” (GNT Pharma Co., Ltd., priority 2018, published 2020).
Where “and” joins values, the source holds several entries; their conditions need not be identical. Equal values may be shown once.

Assays:
moderate-to-severe AD = conditions: cited from earlier work
[1] = molecular target: T1, microsomal prostaglandin E(2) synthase-1 (mPGES-1) (Homo sapiens, UniProt O14684); conditions: previous study [20]; cited from earlier work
T1 sequence (O14684 1-152): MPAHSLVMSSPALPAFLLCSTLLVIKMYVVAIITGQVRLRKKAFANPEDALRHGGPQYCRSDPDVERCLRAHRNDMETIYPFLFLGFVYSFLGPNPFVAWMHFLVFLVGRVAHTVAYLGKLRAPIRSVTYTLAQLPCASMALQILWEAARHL

dogs with CDS [2] = test: Safety assessment in dogs with CDS; format: in vivo; conditions: 10 mg/kg oral once daily
Protocol: (§1) This study was a randomized, blind, placebo-controlled clinical trial to investigate the efficacy and safety of Compound 2 in dogs with CDS. To investigate the efficacy of Compound 2, two questionnaires were evaluated: CCDR scale and canine dementia scale (CADES). To measure the safety of Compound 2, not only the occurrence of adverse events was investigated but also the vital signs, physical examination, and blood tests were performed in the dogs. Compound 2 was prescribed for oral administration of 10 mg/kg once-daily dosing for 8 weeks. Subjects 3 and 4 received Compound 2 additionally for 4 weeks with approval of the principal investigator. Instead of Compound 2, subjects 18-22 received placebo for 8 weeks. In this study, we allowed the dogs to be administered Compound 2 in various ways: mix with dietary supplement (subjects 1 and 3), mix with food (subjects 2 and 6), dissolve in water (subject 4), or capsule with water (subject 5), or chewable tablet with water (subjects 7-22).
During this study, the safety of Compound 2 in dogs with CDS was evaluated at every visit.

Stability test = format: physicochemical
Protocol: In stability test, Compound 2 was stable at 25° C. for at least 60 months. Additionally, the capsule and chewable formulations of Compound 2 were stable at 25° C. for at least 24 and 12 months, respectively.

in vivo = test: in vivo; set-up: species or system beagle dogs; conditions: both sexes, beagle, dog, po
Protocol: The systemic toxic potential of Compound 2 in beagle dogs was investigated in Huntington Life Science, a large non-clinical contract research organization in Cambridgeshire, England. Three groups each comprising three males and three females, received Compound 2 at doses of 20, 65, or 200 mg/kg/day for 13 weeks. […] Consequently, 200 mg/kg/day was considered the no-observed-adverse-effect level (NOAEL) in dogs.

dogs with CDS [3] = test: Canine dementia scale (CADES) questionnaire in companion dogs with CDS; format: in vivo, dog
Source text: (§2) The companion animals tested in the study were 22 elderly dogs (12-19 years of age) diagnosed with CDS. Each dog enrolled for the present study met the following criteria: body weight <12 kg (regardless of gender), dogs which had lived with the owner for at least 90 days, dogs which were able to take oral medicine, dogs with CDS diagnosed by investigator (canine cognitive dysfunction rating (CCDR) scale ≥50 points) and dogs with informed consent of their owners. Dogs with a pregnancy or lactating, with hypersensitivity against salicylic acid derivatives, or with the underlying disease (i.e. renal dysfunction, visual loss, heart failure, or renal failure) were excluded. In addition, dogs which had participated any other clinical trials within 90 days or dogs which had not only CDS but also other neurodegenerative diseases were excluded.
as §1
(§3) Rating scales are essential tools for CDS diagnosis, staging, assessment, and careful monitoring of the disease symptoms as well as for evaluation of the efficacy of therapeutic strategies. Several rating scales have been developed during the last decade e.g. CCDR scale. To assess the severity of CDS in this study, two questionnaires (CCDR scale and CADES) were performed before and after oral administration of Compound 2 by a veterinarian. Questionnaires include a broad range of items measuring appetite, drinking behavior, barking, elimination behavior, day/night sleeping pattern, aimless behavior, adaptive capabilities, social behavior, perceptual ability, disorientation, and memory.
To ensure and confirm the CCDR scale, we used an additional questionnaire, CADES which contains 17 items distributed into four domains, related to changes in dogs' behaviors: spatial orientation, social interaction, sleep-wake cycle, and house soiling (Table 6). It can be classified according to various stages of cognitive impairment: mild, moderate, and severe cognitive impairment. It is known well that CADES is also suitable for long-term assessment of the progression of cognitive impairment in canine, and potentially as efficacy readout for treatments.

dogs with CDS [4] = test: CCDR scale questionnaire in companion dogs with CDS, randomized blind placebo-controlled clinical trial; format: in vivo, dog; set-up: key to CCDR score, 4 weeks / CCDR score, 8 weeks / CCDR score, 12 weeks / CCDR score, 16 weeks (discontinuation) / CCDR score, 20 weeks (discontinuation) / CCDR score, 12 weeks (discontinuation): CCDR scale points (13 items); ≥50 indicates CDS
Source text: as §2, §1, §3
CCDR scale consists of 13 items based on CDS symptoms (Table 2). The 13 kinds of behaviors included various problems related to orientation (staring blankly, getting lost in the home), memory (lack of recognition of owners, house-soiling), apathy (reduced time spent active, avoiding contact with owners), impaired olfaction (difficulty finding food), and locomotion. These problems compromise both the dog's quality of life and the dog-owner bond. Scores ≥50 on the CCDR are indicative of CDS in the aged dogs (12-19 years of age). In this study, we compared the CCDR scores before and after administration of Compound 2 in dogs with CDS.

[5] = Pharmacokinetic study in beagle dogs; format: in vivo; conditions: dog, plasma, oral, 20 mg/kg/day
Protocol: Based upon the safety and pharmacokinetic profile of Compound 2, a dose of 10 mg/kg/day was chosen to investigate safety and efficacy of Compound 2 in canine CDS.

G93A mice = test: Animal model of amyotrophic lateral sclerosis (G93A mice), preliminary data; format: in vivo; conditions: oral, 2.5 mg/kg
[6] = Pharmacokinetics after oral administration in mice; format: in vivo; conditions: mouse, plasma, 2.5 mg/kg
APP/PS1 mice = test: Animal model of AD (APP/PS1 mice), preliminary data; format: in vivo; conditions: oral, 2.5 mg/kg
[7] = tested on: mouse model of amyotrophic lateral sclerosis; conditions: previous study [20]; cited from earlier work
CDS dogs = conditions: literature [17-19]; effect in most dogs disappeared at 8 weeks after treatment; cited from earlier work
[8] = 10 mg/kg oral once daily, per individual dog
[9] = change vs 0 week, per individual dog
[10] = change vs 0 week, 10 mg/kg oral once daily, per individual dog, 10 mg/kg

CC12CC3CC(C)(C1)CC(N)(C3)C2 [memantine]
mental function and ability to perform daily activities (moderate-to-severe AD): a small improvement

O=C(O)c1cc(NCCc2ccc(C(F)(F)F)cc2)ccc1O [Compound 2, 2-hydroxy-5-[2-(4-trifluoromethyl-phenyl)-ethylamino]-benzoic acid]
mPGES-1 inhibition, effective concentration [1]: effective at nanomolar concentrations
blood toxicity test (dogs with CDS [2]): no significant changes
treatment-related adverse events (dogs with CDS [2]): did not occur
stable at 25° C. for (Stability test): at least 60 months
NOAEL at 13 weeks (in vivo): 200 mg/kg/day
CADES score of house soiling (items 13-17), 4 weeks (dogs with CDS [3]; [8]): 5 (2×) and 9 and 16 and 14 and 22 (2×) and 11 and 3 and 19 (2×) and 17 and 10 and 25 and 18 and 4 and 0
CADES score of house soiling (items 13-17), 8 weeks (dogs with CDS [3]; [8]): 4 (2×) and 0 (3×) and 8 and 12 and 18 and 14 and 21 and 20 and 5 and 19 and 17 and 25
CADES score of sleep-wake cycles (items 11-12), 4 weeks (dogs with CDS [3]; [8]): 18 (4×) and 6 and 16 (2×) and 20 (3×) and 0 and 10 (2×) and 8 (2×) and 14 and 4
CADES score of sleep-wake cycles (items 11-12), 8 weeks (dogs with CDS [3]; [8]): 10 and 0 (4×) and 14 and 12 (3×) and 20 (2×) and 16 (2×) and 8 and 6
CADES score of social interaction (items 6-10), 4 weeks (dogs with CDS [3]; [8]): 5 (2×) and 14 (3×) and 17 (2×) and 13 (3×) and 0 and 25 and 15 and 10 and 18 and 20 and 19
CADES score of social interaction (items 6-10), 8 weeks (dogs with CDS [3]; [8]): 15 (2×) and 5 and 10 (2×) and 14 and 11 and 19 and 4 and 24 and 16 and 18 and 9 and 13 and 3
CADES score of spatial orientation (items 1-5), 4 weeks (dogs with CDS [3]; [8]): 5 (3×) and 20 (3×) and 18 (2×) and 16 and 17 and 24 (3×) and 25 (2×) and 13 and 21
CADES score of spatial orientation (items 1-5), 8 weeks (dogs with CDS [3]; [8]): 9 and 15 (3×) and 13 (2×) and 17 and 25 and 0 and 24 and 20 (2×) and 22 and 23 and 4
Total CADES score, 4 weeks (dogs with CDS [3]; [8]): 33 and 49 and 67 and 65 and 68 and 69 and 8 and 89 and 64 and 57 and 66 and 55 and 90 and 51 and 14
Total CADES score, 8 weeks (dogs with CDS [3]; [8]): 38 and 20 and 45 and 53 and 58 and 78 and 4 and 85 and 55 and 63 and 57 and 64 and 40 and 67 and 7
companion dogs showing improvement in spatial disorientation (dogs with CDS [3]; 4 weeks after administration, 10 of 17 dogs): 59%
companion dogs showing further improvement in social interaction at 8 weeks compared with 4 weeks (dogs with CDS [3]; 8 of 15 dogs): 53%
companion dogs significantly improved in sleep-wake cycle (item 11) (dogs with CDS [3]; 8 weeks after administration, 10 of 15 dogs): 67%
cognitive function by total CADES score (dogs with CDS [3]; 8 weeks after oral administration): significant improvement in cognitive function was observed from severe to moderate, weak, or normal level
companion dogs with beneficial effects on spatial orientation (dogs with CDS [3]; 8 weeks after oral administration, 9 of 15 dogs): 60%
CADES score of house soiling (items 13-17), change, 4 weeks (dogs with CDS [3]; [9]): 1 and −6 and −2 (2×) and −5 (2×) and −1 (2×) and −4 and −15 and 0 (5×) and −3 and −10
CADES score of house soiling (items 13-17), change, 8 weeks (dogs with CDS [3]; [9]): 0 (3×) and −15 and −10 (2×) and −7 and −5 and −1 (2×) and −18 and 1 and −2 and −3 and −6
CADES score of sleep-wake cycles (items 11-12), change, 4 weeks (dogs with CDS [3]; [9]): −2 (5×) and −4 and 4 (2×) and 0 (6×) and −18 and −6 and −12
CADES score of sleep-wake cycles (items 11-12), change, 8 weeks (dogs with CDS [3]; [9]): −10 (3×) and −4 (2×) and −2 (2×) and −6 and 0 (3×) and −18 and 2 and −14 and −16
CADES score of social interaction (items 6-10), change, 4 weeks (dogs with CDS [3]; [9]): −10 and 0 (6×) and −1 (3×) and −2 (2×) and −4 and −14 and −5 and −7 and −11
CADES score of social interaction (items 6-10), change, 8 weeks (dogs with CDS [3]; [9]): 0 (3×) and −9 and −8 and −5 and −2 and 1 and −10 and −1 (2×) and −3 and −6 and −7 and −13
CADES score of spatial orientation (items 1-5), change, 4 weeks (dogs with CDS [3]; [9]): −9 and −3 (2×) and −1 (3×) and −2 (2×) and 2 and −11 and 0 (4×) and 3 and 5 and −19
CADES score of spatial orientation (items 1-5), change, 8 weeks (dogs with CDS [3]; [9]): −5 and −8 and −6 and −3 (2×) and −1 and 3 (2×) and −16 and 0 (4×) and −2 and −20
Total CADES score change, 4 weeks (dogs with CDS [3]; [9]): −20 and −13 and −6 (2×) and −5 (2×) and −4 and −58 and 0 (2×) and −2 and −8 and 5 (2×) and −11 and −15 and −52
Total CADES score change, 8 weeks (dogs with CDS [3]; [9]): −15 and −42 and −28 and −17 and −14 and 3 and −62 and −4 and −9 and −6 and −2 and −10 (2×) and −18 and −59
CCDR score, 4 weeks (dogs with CDS [4]; 10 mg/kg oral once daily, 4 weeks of administration, individual dog (subject No.)): 38 and 40 and 55 and 56 and 53 and 54 and 60 and 52 and 50 and 43 and 63 and 49 and 30
CCDR score, 8 weeks (dogs with CDS [4]; 10 mg/kg oral once daily, 8 weeks of administration, per individual dog): 34 and 46 and 41 and 51 and 54 and 27 and 50 and 53 and 59 and 43 and 30 and 42
beneficial effects maintained after the last administration (dogs with CDS [4]; aged companion dogs with severe CDS, oral): at least 4 weeks
CCDR score change, 4 weeks (dogs with CDS [4]; [10]): −22 and −11 (3×) and −9 (2×) and −12 (2×) and −18 and −5 and −1 and −7 and −6 and −16 and −10 and −44 and −13
CCDR score change, 8 weeks (dogs with CDS [4]; [10]): −26 and −5 and −23 and −16 and −11 and −40 and −24 and −6 and −2 and −10 and −9 and −7 and −19 and −44 and −20
CCDR score, 12 weeks (dogs with CDS [4]; subjects 3 and 4, 12-week administration): 32 and 43
CCDR score, 16 weeks (discontinuation) (dogs with CDS [4]; subjects 3 and 4, 4 weeks after discontinuation of 12-week administration): 38 and 44
CCDR score, 20 weeks (discontinuation) (dogs with CDS [4]; subjects 3 and 4, 8 weeks after discontinuation of 12-week administration): 36 and 43
CCDR score, 12 weeks (discontinuation) (dogs with CDS [4]; subjects 7, 8, 10, 11, 4 weeks after discontinuation of 8-week administration): 48 and 50 and 54
cognitive function on the CCDR scale (dogs with CDS [4]; within 4 weeks of oral administration): near normal cognitive function
AUC [5]: 75100 ng·h/mL
Cmax [5]: 10600 ng/mL
improvement in cognitive and motor functions (G93A mice): maximally beneficial effects
AUC ([6]; read-out: AUC (area under the plasma level-time curve)): 9610 ± 1380 ng·h/mL
Cmax ([6]; read-out: Cmax (mean maximum plasma concentration)): 5190 ± 960 ng/mL
improvement in cognitive and motor functions (APP/PS1 mice): maximally beneficial effects
motor function activity and life span [7]: increases of motor function activity and life span

C#CCN(C)[C@H](C)Cc1ccccc1 [selegiline]
cognitive function in CDS dogs (CDS dogs): improved within the first 2 weeks
